Test results taken from ChEMBL document CHEMBL1201862, “PubChem BioAssay data set” (2004).
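All cell lines were grown in 96-well plates and treated with compound for 48 hours. GI50 = concentration required for 50% inhibition of growth.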 Active and inactive are the calls of the source. No stated cut-off is given here; in the data, active = GI50 up to about 1.1 µM and inactive = higher.

What was measured:
Assay in all cases: inhibition of tumour cell growth, NCI panel, 48 h
Hs-578T = system: Hs-578T
MOLT-4 = system: MOLT-4
OVCAR-8 = system: OVCAR-8
EKVX = system: EKVX
SN12C = system: SN12C
A549 = system: A549
NCI-H226 = system: NCI-H226
HCT-116 = system: HCT-116
TK-10 = system: TK-10
HCC 2998 = system: HCC 2998
OVCAR-3 = system: OVCAR-3
NCI/ADR-RES = system: NCI/ADR-RES
T47D = system: T47D
UACC-257 = system: UACC-257
SF-268 = system: SF-268
M14 = system: M14
CAKI-1 = system: CAKI-1
U-251 = system: U-251
HL-60 = system: HL-60
MDA-MB-231 = system: MDA-MB-231

Measured: GI50

O=C1c2ccccc2C(=O)N1CCCSc1ccccc1
inactive: Hs-578T > 100 µM | MOLT-4 31.8 µM | OVCAR-8 > 100 µM | EKVX 57.1 µM | SN12C 71.3 µM | A549 76.2 µM | NCI-H226 > 100 µM | HCT-116 94.2 µM | TK-10 > 100 µM | HCC 2998 25.1 µM | OVCAR-3 28.8 µM | NCI/ADR-RES 52 µM | T47D 31.3 µM | UACC-257 39.7 µM | SF-268 > 100 µM | M14 66.7 µM | CAKI-1 93.1 µM | U-251 91.4 µM | HL-60 75.7 µM | MDA-MB-231 > 100 µM

Cc1ccc(/N=N/NCCCCN/N=N/c2ccc(C)cc2)cc1
inactive: Hs-578T > 100 µM | MOLT-4 14.2 µM | OVCAR-8 27.4 µM | EKVX > 100 µM | SN12C > 100 µM | A549 6.04 µM | NCI-H226 > 100 µM | HCT-116 65.8 µM | TK-10 1.65 µM | HCC 2998 13.9 µM | OVCAR-3 > 100 µM | NCI/ADR-RES > 100 µM | T47D 11.5 µM | UACC-257 > 100 µM | SF-268 96.8 µM | M14 8.05 µM | CAKI-1 > 100 µM | U-251 > 100 µM | HL-60 1.75 µM | MDA-MB-231 > 100 µM

CN(C)c1ccc(/C(F)=C(F)/C(F)=C(F)/C(F)=C(\F)c2ccc(Br)cc2)cc1
inactive: Hs-578T 17.2 µM | MOLT-4 25.6 µM | OVCAR-8 33 µM | EKVX 22.9 µM | SN12C 6.61 µM | A549 31.5 µM | NCI-H226 50 µM | HCT-116 5.33 µM | TK-10 > 75.5 µM | HCC 2998 18.2 µM | OVCAR-3 9.38 µM | NCI/ADR-RES 6.4 µM | T47D 34.7 µM | UACC-257 > 74.1 µM | SF-268 51.8 µM | M14 16.1 µM | CAKI-1 18.7 µM | U-251 17.5 µM | HL-60 8.97 µM | MDA-MB-231 39.5 µM

COc1ccc2c3c1O[C@H](c1ccc(O)cc1)[C@H]3[N+](C)(C)CC2
inactive: Hs-578T > 100 µM | MOLT-4 > 100 µM | OVCAR-8 > 100 µM | EKVX > 100 µM | SN12C > 100 µM | A549 > 100 µM | NCI-H226 > 100 µM | HCT-116 > 100 µM | TK-10 > 100 µM | HCC 2998 > 100 µM | OVCAR-3 > 100 µM | NCI/ADR-RES > 100 µM | T47D > 100 µM | UACC-257 > 100 µM | SF-268 > 100 µM | M14 > 100 µM | CAKI-1 > 100 µM | U-251 > 100 µM | HL-60 34.3 µM | MDA-MB-231 > 100 µM

N[C@@H]1c2c(Br)sc(Br)c2C(=O)[C@H]1Br
inactive: Hs-578T 54.6 µM | MOLT-4 4.69 µM | OVCAR-8 20.5 µM | EKVX 34.4 µM | SN12C 24.9 µM | A549 > 100 µM | NCI-H226 > 42.3 µM | HCT-116 17.3 µM | TK-10 > 100 µM | HCC 2998 31.3 µM | OVCAR-3 30.6 µM | NCI/ADR-RES 22.2 µM | T47D 30.2 µM | UACC-257 18.6 µM | SF-268 31.2 µM | M14 20.6 µM | CAKI-1 27.3 µM | U-251 22.7 µM | HL-60 2.42 µM | MDA-MB-231 23.6 µM

CCCCOc1ccc(/C=C/C2=[N+](CCO)CCO2)cc1
inactive: Hs-578T > 100 µM | MOLT-4 53 µM | OVCAR-8 70.1 µM | EKVX > 100 µM | SN12C 97.3 µM | A549 55.3 µM | NCI-H226 27.2 µM | HCT-116 39.8 µM | TK-10 > 100 µM | HCC 2998 22.5 µM | OVCAR-3 61.5 µM | NCI/ADR-RES 78 µM | T47D 30.5 µM | UACC-257 > 100 µM | SF-268 > 100 µM | M14 76.7 µM | CAKI-1 67.5 µM | U-251 34.4 µM | HL-60 21.7 µM | MDA-MB-231 61.9 µM
